Earlier results, collected in patent publication US9463180B2, “Treatment of molluscum contagiosum” (QUADEX PHARMACEUTICALS, LLC, priority 2013, dated 2016).

Tested on: molluscum contagiosum
Details: small studies; applied 3 times per week, left on skin 6 to 10 hours

In the case of `CC(C)Cn1cnc2c(N)nc3ccccc3c21` [Imiquimod], the success rate is given as “about 80%”.
